Experimental data as given in article PMC8231969, “Characterization of Two NMN Deamidase Mutants as Possible Probes for an NMN Biosensor” (International Journal of Molecular Sciences, 2021).
Read-outs that look alike come from different tables or passages of the source.

Experiments:
WT PncC (NMN deamidase) = tested on: T1, WT PncC (NMN deamidase); assay: Fluorescence-based thermal shift binding assay, wild-type PncC; design: species or system E. coli; conditions: 1 mM NMN
T1 construct: made in house; host or cells: E. coli BL21(DE3)
Protocol: (§1) Protein melting temperature (Tm) was determined by fluorescence-based thermal shift assay using fluoroprobe SYPRO Orange dye (Invitrogen, Waltham, MA, USA). The assay was performed in a RotorGene 3000 real-time PCR (Corbett, Biocompare, San Francisco, CA, USA). The assay mixture contained 50 mM Hepes/NaOH, pH 7.5, 300 mM NaCl, 1 mM TCEP, 1 μM protein, Sypro orange at 10-fold dilution from a 5000-fold stock, and the various ligands at the tested concentrations, in a final volume of 25 μL. The mixtures were pre-heated at 40 °C for 5 s, then heated to 50 °C in 1 s, and finally heated from 50 to 99 °C with a heating-up rate of 0.5 °C every 5 s. The fluorescence intensity was measured with Ex/Em: 470/585 nm. The melting temperature was determined by taking the maximum point of the slope-derivative peak. Kd values were determined by plotting the percentage of unfolded proteins as a function of nucleotide concentration at a fixed temperature, after normalization of the unfolding curves. Fitting of the data was performed using the equations reported in [34]. Three independent experiments were carried out and values were reported as the means ± standard deviation.

S29A PncC [1] = biological target: T2, S29A PncC (Escherichia coli, UniProt P0A6G3, S29A); assay: biochemical; format: binding, E. coli
T2 construct: made in house; host or cells: E. coli BL21(DE3)

Y56A PncC = tested on: T3, Y56A PncC; assay: Fluorescence-based thermal shift binding assay, Y56A PncC; design: species or system E. coli
T3 construct: made in house; host or cells: E. coli BL21(DE3)
Protocol: as §1

K61Q PncC [2] = biological target: T4, K61Q PncC (Escherichia coli, UniProt P0A6G3, K61Q); assay: biochemical; format: binding, E. coli
T4 construct: made in house; host or cells: E. coli BL21(DE3)

R142A PncC = tested on: T5, R142A PncC; assay: Fluorescence-based thermal shift binding assay, R142A PncC; design: species or system E. coli
T5 construct: made in house; host or cells: E. coli BL21(DE3)
Protocol: as §1

S29A PncC [3] = biological target: T2, S29A PncC; format: binding, E. coli
Excerpt: (§2) Experimental data were processed using the OriginPro 8.0 (OriginLab Corporation, Northampton, MA, USA). A non-linear curve analysis (Hill1 plot) was used for plotting the F0/F values in function of the metabolite concentration, to obtain the Kd value.

K61Q PncC [4] = biological target: T4, K61Q PncC; format: binding, E. coli
Protocol: as §2
Percentage of the K61Q protein that would exist in complex with NMN in a cellular setting was calculated based on the Kd value, by using the equation: %=100/1+Kd/[NMN]

[5] = tested on: glutamine binding protein (GlnBP); conditions: GlnBP 3 µM, 96 µM nucleotide
Protocol: Steady-state measurements were performed using an ISS_K2 fluorometer (ISS, Urbana-Champaign, IL, USA), equipped with a one-cell temperature-controlled sample holder. […] Excitation and emission slit widths were fixed at 0.5 and 1.0 nm, respectively. […] The nucleotides were added to reach the indicated final concentration (from 0.18 to 96 µM) with an incubation interval of 10 min. Triplicate readings were done for each experimental point. Experiments were repeated three times (for NMN and NaMN) or twice (for all the other metabolites). Controls experiments were performed using the E. coli Glutamine Binding Protein (GlnBP, 3µM), with increasing concentration of NMN or NaMN, at the same conditions.
Percentages of reduction of fluorescence intensities compared to buffer, were calculated as follow: (normalized fluorescence in presence of analyte at a given [µM]/normalized fluorescence in presence of corresponding volume of buffer) × 100.

[6] = Thermal stability (melting temperature) of PncC proteins without ligand; format: physicochemical; conditions: absence of NMN
Protocol: as §1

| Molecule | S29A PncC fluorescence quenching (%) vs buffer (S29A PncC [3]; nucleotide 0.185 µM) [%] | S29A PncC fluorescence quenching (%) vs buffer (S29A PncC [3]; nucleotide 0.375 µM) [%] | S29A PncC fluorescence quenching (%) vs buffer (S29A PncC [3]; nucleotide 0.75 µM) [%] | S29A PncC fluorescence quenching (%) vs buffer (S29A PncC [3]; nucleotide 3 µM) [%] | S29A PncC fluorescence quenching (%) vs buffer (S29A PncC [3]; nucleotide 6 µM) [%] | S29A PncC fluorescence quenching (%) vs buffer (S29A PncC [3]; nucleotide 12 µM) [%] | S29A PncC fluorescence quenching (%) vs buffer (S29A PncC [3]; nucleotide 24 µM) [%] | S29A PncC fluorescence quenching (%) vs buffer (S29A PncC [3]; nucleotide 48 µM) [%] | K61Q PncC fluorescence quenching (%) vs buffer (K61Q PncC [4]; nucleotide 0.185 µM) [%] | K61Q PncC fluorescence quenching (%) vs buffer (K61Q PncC [4]; nucleotide 0.375 µM) [%] | K61Q PncC fluorescence quenching (%) vs buffer (K61Q PncC [4]; nucleotide 0.75 µM) [%] | K61Q PncC fluorescence quenching (%) vs buffer (K61Q PncC [4]; nucleotide 1.5 µM) [%] | K61Q PncC fluorescence quenching (%) vs buffer (K61Q PncC [4]; nucleotide 3 µM) [%] | K61Q PncC fluorescence quenching (%) vs buffer (K61Q PncC [4]; nucleotide 6 µM) [%] | K61Q PncC fluorescence quenching (%) vs buffer (K61Q PncC [4]; nucleotide 12 µM) [%] | K61Q PncC fluorescence quenching (%) vs buffer (K61Q PncC [4]; nucleotide 24 µM) [%] | K61Q PncC fluorescence quenching (%) vs buffer (K61Q PncC [4]; nucleotide 48 µM) [%] | quenching of fluorescence of GlnBP [5] [%] | Tm (melting temperature of the protein) [6] [°C] | further results |
| --- | --- | --- | --- | --- | --- | --- | --- | --- | --- | --- | --- | --- | --- | --- | --- | --- | --- | --- | --- | --- |
| NC(=O)c1ccc[n+]([C@@H]2O[C@H](COP(=O)([O-])O)[C@@H](O)[C@H]2O)c1 [NMN, nicotinamide mononucleotide] | 0.48 | 0.58 | 2.58 | 17.42 | 17.55 | 27.06 | 37.52 | 46.79 | 1.09 | 1.84 | 3.19 | 4.87 | 6.26 | 8.11 | 12.12 | 20.07 | 38.03 | 4.3 | – | Tm (+NMN) (WT PncC (NMN deamidase)): 92.2 °C; ΔTm (WT PncC (NMN deamidase)): 6.1 °C; Tm (+NMN) (S29A PncC [1]; S29A PncC, 1 mM NMN): 95.5 °C; ΔTm at 1000 µM (S29A PncC [1]; read-out: ΔTm): 10 °C; Tm (+NMN) (Y56A PncC; 1 mM NMN): 83.6 °C; Effect of NMN on Tm (Y56A PncC; 1.0 mM NMN): not affected; Tm (+NMN) (K61Q PncC [2]; K61Q PncC, 1 mM NMN): 86.2 °C; ΔTm at 1000 µM (K61Q PncC [2]; read-out: ΔTm): 18.7 °C; Tm (+NMN) (R142A PncC; 1 mM NMN): 52.4 °C; Effect of NMN on Tm (R142A PncC; 1.0 mM NMN): not affected; Hill coefficient (nH) (S29A PncC [3]; S29A PncC, Trp fluorescence): 0.98± 0.1; Hill coefficient (nH) (K61Q PncC [4]; K61Q PncC, Trp fluorescence): 1.3±0.2 |
| O=C(O)c1ccc[n+]([C@@H]2O[C@H](COP(=O)([O-])O)[C@@H](O)[C@H]2O)c1 [NaMN, nicotinic acid mononucleotide] | 1.79 | 2.56 | 6.47 | 30.74 | 30.87 | 40.52 | 47.93 | 52.28 | 0.71 | 1.11 | 2.05 | 2.12 | 2.82 | 2.80 | 4.14 | 4.9 | 7.14 | 4.3 | – | Kd (thermal shift) (K61Q PncC [2]; K61Q PncC, at 70 °C): not possible to determine Kd; S29A PncC fluorescence quenching (%) vs buffer (S29A PncC [3]; nucleotide 1.5 µM): 20.83%; apparent Kd (Trp fluorescence) (K61Q PncC [4]; K61Q PncC, at 25 °C): not possible to determine Kd; K61Q PncC fluorescence quenching (%) vs buffer (K61Q PncC [4]; nucleotide 96 µM): 10.68% |
| S29A PncC: catalytically inactive S29A mutant of E. coli NMN deamidase PncC (protein, left off: His tag (from the HisTrap HP purification; vector pCA24N), end not stated, state not stated) MTDSELMQLSEQVGQALKARGATVTTAEACTGGWVAKVITDIAGSSAWFERGFVTYSNEAKAQMIGVREETLAQHGAVSEPVVVEMAIGALKAARADYAVSISGIAGPDGGSEEKPVGTVWFAFATARGEGITRRECFSGDRDAVRRQATAYALQTLWQQFLQNT | – | – | – | – | – | – | – | – | – | – | – | – | – | – | – | – | – | – | 85.5 | – |
| WT PncC: wild type NMN deamidase (PncC) from E. coli, recombinant (protein, left off: His tag (from the HisTrap HP purification; vector pCA24N), end not stated, state not stated, wild type NMN deamidase (PncC) from E. coli, recombinant) MTDSELMQLSEQVGQALKARGATVTTAESCTGGWVAKVITDIAGSSAWFERGFVTYSNEAKAQMIGVREETLAQHGAVSEPVVVEMAIGALKAARADYAVSISGIAGPDGGSEEKPVGTVWFAFATARGEGITRRECFSGDRDAVRRQATAYALQTLWQQFLQNT | – | – | – | – | – | – | – | – | – | – | – | – | – | – | – | – | – | – | 86.1 | – |
| K61Q PncC: catalytically inactive K61Q mutant of E. coli NMN deamidase PncC (protein, left off: His tag (from the HisTrap HP purification; vector pCA24N), end not stated, state not stated) MTDSELMQLSEQVGQALKARGATVTTAESCTGGWVAKVITDIAGSSAWFERGFVTYSNEAQAQMIGVREETLAQHGAVSEPVVVEMAIGALKAARADYAVSISGIAGPDGGSEEKPVGTVWFAFATARGEGITRRECFSGDRDAVRRQATAYALQTLWQQFLQNT | – | – | – | – | – | – | – | – | – | – | – | – | – | – | – | – | – | – | 67.5 | – |
